Patent publication US20240165200A1, “CATH2 AND DERIVATIVES FOR INHIBITING STREPTOCOCCUS SUIS” (Universiteit Utrecht Holding B.V., priority 2021, published 2024)
Values after ≈ are worked out from the molar mass of the structure shown. Where a SMILES comes first, the peptide text is derived from it. [ ]: non-standard residue; d: D form.

Assays:
murine BMDMs = type: cell-based, mouse
Method: FIG. 2: Peptide titration on BMDM and BMDCs for cytotoxicity and expression of cell markers. Mouse BMDM (A, C, E, G) and BMDCs (B, D, F, H) were cultured for 6 days with […]. Different concentrations were added at day 6 (A, B, E, F) or the cells were primed with different concentrations peptides at day 1-2 (C, D, G, H). At day 7, cell viability was tested using WST-1 reagent, with no-peptide-control set to 100% viability (A-D) and cells were analyzed by flowcytometry for cell marker expression (E-H). Results are depicted as mean +/−S.E.M. (n=3).
Bone marrow cells, isolated from the femur and tibia of both hindlegs, were stored in FCS/10% DMSO in liquid nitrogen. Cells were grown at a concentration of 5×10^5 cells mL^−1 in RPMI-1640 without phenol red (Thermo Fisher Scientific, MA, USA) supplemented with 10% fetal calf serum (FCS) (Corning, NY, USA) and 1% Penicillin/streptomycin (Thermo Fisher Scientific). […] Cells were stained with antibodies (table 1) for 20 minutes, washed and measured using the BD FACSCanto-II (BD bioscience) and analyzed with FlowJo software (Ashland, OR, USA).
WST-1 reagent (roche) was used for cell viability of BMDCs and BMDM as well as for cell activity of activated splenocytes. […] After 30-60 minutes, colorimetric changes were measured at 450 nm using a FLUOstar Omega microplate reader (BMG Labtech GmbH, Ortenberg, Germany). […]

[1] = tested on: 4 different S. suis serotype 2 strains; assay: Colony count assay (MBC), summary over the four strains; type: cell-based, Streptococcus suis; details: four sub-strains, RPMI+10% FCS medium
Method: FIG. 1: D-CATH2 and its derivatives efficiently kills several S. suis type2 strains in both THB and RPMI+FCS. Antibacterial activity of D-CATH2 and its derivatives against 10^6 CFU ml^−1 S. suis type 2 strains (P1/7, D282, 5735, and OV625) was tested using a colony count assay in both THB medium (A) and RPMI+FCS (B). 2 log CFU mL^−1 was set as detection limit for the experiment. Data is plotted as average +/−SEM (N=3-4).
S. suis Serotype 2 strains P1/7, D282, S735, and OV625 were grown into mid-logarithmic phase for 3-4 hours at 37° C. in THB, after which bacteria were centrifuged at 1200×g for 10 minutes at 4° C. and resuspended in fresh THB. Concentration was determined by measuring the OD value at 620 nm with an OD of 0.1 is 1×10^8 colony forming units (CFU) mL^−1. 10^6 CFU mL^−1 S suis was mixed with different concentrations of D-CATH and derivatives (0.63−40 μM) and left for 3 hours at 37° C. Ten-fold dilutions were prepared and spread in Tryptan Soy agar (TSA) plates containing 5% (vol/vol) defibrinated sheep blood (Oxoid) and colonies were allowed to grow for 48 hours. Minimal Bactericidal Concentration (MBC) was defined as ≤100 CFU mL^−1 (2 logCFU mL^−1), the detection limit of the assay.

[2] = Isothermal titration calorimetry (ITC) of peptide binding to LTA-SA; design: species or system S. aureus; details: 200 μM peptide titrated into LTA-SA, 37° C., dPBS; read-out: Kd (dissociation coefficient)
Method: Thermodynamic binding capacity of 200 μM D-CATH2 (A), DC(1-21) (B), and DC(4-21) (C) to 200 μM LTA-SA was measured using isothermal titration calorimetry (ITC). Every 300 seconds, 1.99 μl peptide solution was titrated into 164 μl LTA solution. The corrected heat rate (μJ sec^−1) is plotted (top panel) and normalized integrated heat was plotted against the molar ratio between LTA and the peptide (lower panel). Experiments (N=3) were averaged before plotting and fitting an independent model. The corrected heat rate of D-CATH2, DC(1-21), and DC(4-21) is depicted for comparison (D).
The interaction between the D-CATH2 peptides and LTA-SA was tested using isothermal titration calorimetry (ITC). All ITC experiments were performed on a Low Volume NanoITC (TA instruments-Waters LLC, New Castle, USA). 800 μM of LTA-SA or peptide solution was prepared in MilliQ after which a 4-fold dilution in dPBS (Gibco) was made. The chamber was filled with 164 μl LTA-SA and the peptide was loaded in the syringe. Every 300 seconds, 1.99 μL peptide was titrated into the chamber at 37° C. Data was analyzed using the Nano Analyze software (TA instruments-Waters LLC). The data of three experiments was averaged and an independent model was used to determine the peptide-LTA interaction.

[3] = tested on: murine macrophage cell-line; details: biological form of CATH2; cited from earlier work

With `CC[C@@H](C)[C@@H](NC(=O)[C@@H](CCCCN)NC(=O)[C@@H](CCCNC(=N)N)NC(=O)[C@@H](CC(C)C)NC(=O)[C@@H](Cc1ccccc1)NC(=O)[C@@H](CCCNC(=N)N)NC(=O)CNC(=O)[C@@H](Cc1ccccc1)NC(=O)[C@H](N)CCCNC(=N)N)C(=O)N[C@H](CCCNC(=N)N)C(=O)N[C@H](CCCNC(=N)N)C(=O)N[C@H](Cc1ccccc1)C(=O)N[C@H](CCCNC(=N)N)C(=O)N1CCC[C@@H]1C(=O)N[C@H](CCCCN)C(=O)N[C@@H](C(=O)N[C@@H](C(=O)N[C@@H](C(=O)N[C@@H](C(=O)N[C@@H](C(=O)N[C@H](CCC(N)=O)C(=O)NCC(=O)N[C@H](CO)C(=O)N[C@H](C)C(=O)N[C@H](CCCNC(=N)N)C(=O)N[C@H](Cc1ccccc1)C(N)=O)[C@H](C)CC)[C@H](C)O)[C@H](C)CC)[C@H](C)O)C(C)C` [D-CATH2] the “cell viability of BMDMs” value (murine BMDMs) was “relative sensitive”.

In the case of `CC[C@@H](C)[C@@H](NC(=O)[C@@H](CCCCN)NC(=O)[C@@H](CCCNC(=N)N)NC(=O)[C@@H](CC(C)C)NC(=O)[C@@H](Cc1ccccc1)NC(=O)[C@@H](CCCNC(=N)N)NC(=O)CNC(=O)[C@@H](Cc1ccccc1)NC(=O)[C@H](N)CCCNC(=N)N)C(=O)N[C@H](CCCNC(=N)N)C(=O)N[C@H](CCCNC(=N)N)C(=O)N[C@H](Cc1ccccc1)C(=O)N[C@H](CCCNC(=N)N)C(=O)N1CCC[C@@H]1C(=O)N[C@H](CCCCN)C(=O)N[C@@H](C(=O)N[C@@H](C(=O)N[C@@H](C(=O)N[C@@H](C(=O)N[C@@H](C(=O)N[C@H](CCC(N)=O)C(N)=O)[C@H](C)CC)[C@H](C)O)[C@H](C)CC)[C@H](C)O)C(C)C` [DC(1-21)], the “cell viability of BMDMs” value (murine BMDMs) is reported as “especially”.

`CC[C@@H](C)[C@@H](NC(=O)[C@@H](CCCCN)NC(=O)[C@@H](CCCNC(=N)N)NC(=O)[C@@H](CC(C)C)NC(=O)[C@@H](Cc1ccccc1)NC(=O)[C@H](N)CCCNC(=N)N)C(=O)N[C@H](CCCNC(=N)N)C(=O)N[C@H](CCCNC(=N)N)C(=O)N[C@H](Cc1ccccc1)C(=O)N[C@H](CCCNC(=N)N)C(=O)N1CCC[C@@H]1C(=O)N[C@H](CCCCN)C(=O)N[C@@H](C(=O)N[C@@H](C(=O)N[C@@H](C(=O)N[C@@H](C(=O)N[C@@H](C(=O)N[C@H](CCC(N)=O)C(N)=O)[C@H](C)CC)[C@H](C)O)[C@H](C)CC)[C@H](C)O)C(C)C` [DC(4-21), RFLRKIRRFRPKVTITIQ-NH2] (H-[dR][dF][dL][dR][dK][dI][dR][dR][dF][dR][dP][dK][dV][dT][dI][dT][dI][dQ]-NH2; N-terminus assumed) showed an MBC [1] of 2.5 µM (≈ 5.82 µg/mL) and a Kd [2] of 2120 nM.

For “RFGRFLRKIRRFRPKVTITIQGSARFG [CATH2, chicken cathelicidin-2, 27 amino acid C-terminal peptide]”, the “LPS and LTA activation” value [3] is listed as “inhibit”.
